Assay results from US20050064383A1, “Methods and apparatus for producing gender enriched sperm” (priority 2000, published 2005).

Key:
[1] = test system: bull sperm; assay: Sperm motility/viability after overnight incubation with HO dye; format: cell-based; settings: overnight incubation at 18, 20 or 22° C., 0 hours
Description: (§1) Bull sperm in citrate buffer at pH 6.9-7.0 is sent from collection facility to sorter facility by same-day delivery at 18° C. Upon receipt the sperm is divided into three portions and stored and stained overnight with Hoechst 33342 dye at 18° C., 20° C., or 22° C. (all in citrate buffer at pH 6.9).

[2] = test system: bull sperm; assay: Staining of bull sperm with Hoechst 33342 in TEST buffer, split index on Coulter Epics flow cytometer; format: cell-based
Description: Bull semen was collected from a sexually mature bull using an artificial vagina and the sample was diluted with citrate buffer (pH 7.0) at 1 part semen: 3 parts buffer. The sample was transferred to the flow cytometry laboratory at 18° C. The concentration of the sample is determined using a hemocytometer and the cells were diluted with an appropriate amount of TEST buffer (pH 7.35) to obtain 100 million sperm per mL. Ten microliters of a stock concentration (5 mg/ml in dH2O) of Hoechst 33342 was added to the sample of sperm and the cells were incubated at 25° C. for up to 4 hours. A second population of cells was handled in like manner but was incubated at 35° C. for 1 hour to serve as a positive control. A third population of cells was handled in like manner but the buffer pH is 7.2 instead of pH 7.35 to determine if buffer pH influences uptake of Hoechst 33342. At one-hour intervals for up to 4 hours, 200 μL micro aliquots were removed from the samples and evaluated using a Coulter Epics flow cytometer. The split index information was collected for each sample per treatment group. [table]

[3] = test system: bull sperm; assay: Staining of bull sperm with Hoechst dye at 24° C. in citrate or HEPES buffer, separation by flow cytometry; format: cell-based
Description: Bull sperm are collected at a collection facility, extended in citrate buffer pH 6.9 and sent at 18° C. by overnight express mail to a sorting facility. The sample is divided into two portions, centrifuged to separate sperm from supernatant, and each portion resuspended respectively in citrate buffer and HEPES buffer, both at pH 7.4. 0.1% BSA is present in the HEPES buffer.

[4] = test system: bull sperm; assay: Overnight low temperature staining of bull sperm with Hoechst 33342, separation into X- and Y-sperm by flow cytometry; format: cell-based; settings: citrate buffer pH 6.9
Description: as §1

[5] = Buffer solubility by HPLC; settings: maximum measurable 90 micromolar
Description: One microliter (μL) of the stock solution was then added to 110 μL of aqueous buffer solution placed in an HPLC (high performance liquid chromatography) vial and mixed by inverting a number of times. The samples were allowed to stand for 30 minutes and then centrifuged for 30 minutes. The centrifugation is required to deposit suspended material that could interfere with the analysis to the side of the vial. The solutions were then analyzed by HPLC by sampling the solution without touching the vial bottom or sides. Shown below are the measured quantities remaining in solution in the various buffers.

## CCOc1ccc(-c2nc3ccc(-c4nc5ccc(N6CCN(C)CC6)cc5[nH]4)cc3[nH]2)cc1 [Hoechst 33342]
[1]
  effect of prolonged exposure to dye medium on sperm viability (motility): does not compromise sperm viability
[2]; 25° C. in TEST pH 7.2
  1 h Split index: 0%
  2 h split index: 0%
  3 h split index: 0%
  4 h split index: 0%
[2]; 25° C. in TEST pH 7.35
  1 h Split index: 0%
  2 h split index: 0%
  3 h split index: 10%
  4 h split index: 30%
[2]; 35° C. control (positive control), 1 hour
  1 h Split index: 30%
[3]; Sperm in HEPES buffer, pH 7.4, 0.1% BSA
  Sort results after 2.5 h incubation at room temperature (24° C.): Sperm were separated into X and Y
[3]; Sperm in NaCitrate buffer, pH 7.4
  Sort results after 2.5 h incubation at room temperature (24° C.): No separation into X and Y
[4]; stained 18° C. o/n, 0 hr incubation @ RT
  separation of Y- and X-bearing sperm by flow cytometry: no separation
[4]; stained 18° C. o/n, 1.5 hr incubation @ RT
  separation of Y- and X-bearing sperm by flow cytometry: no separation
[4]; stained 18° C. o/n, 5.0 hr incubation @ RT
  separation of Y- and X-bearing sperm by flow cytometry: no separation
[4]; stained 20° C. o/n, 0 hr incubation @ RT
  separation of Y- and X-bearing sperm by flow cytometry: no separation
[4]; stained 20° C. o/n, 1.5 hr incubation @ RT
  separation of Y- and X-bearing sperm by flow cytometry: no separation
[4]; stained 20° C. o/n, 5.0 hr incubation @ RT
  separation of Y- and X-bearing sperm by flow cytometry: no separation
[4]; stained 22° C. o/n, 0 hr incubation @ RT
  separation of Y- and X-bearing sperm by flow cytometry: no separation
[5]; HEPES Buffer pH 6.85
  quantity remaining in solution (solubility): 79 µM
[5]; HEPES Buffer pH 7.02
  quantity remaining in solution (solubility): 73 µM
[5]; HEPES Buffer pH 7.23
  quantity remaining in solution (solubility): 27 µM
[5]; HEPES Buffer pH 7.36
  quantity remaining in solution (solubility): 23 µM
[5]; HEPES Buffer pH 7.52
  quantity remaining in solution (solubility): 36 µM
[5]; TES Buffer pH 6.85
  quantity remaining in solution (solubility): 79 µM
[5]; TES Buffer pH 6.98
  quantity remaining in solution (solubility): 80 µM
[5]; TES Buffer pH 7.19
  quantity remaining in solution (solubility): 78 µM
[5]; TES Buffer pH 7.34
  quantity remaining in solution (solubility): 75 µM
[5]; TES Buffer pH 7.54
  quantity remaining in solution (solubility): 57 µM
[5]; Tris Buffer pH 6.76
  quantity remaining in solution (solubility): 34 µM
[5]; Tris Buffer pH 6.95
  quantity remaining in solution (solubility): 42 µM
[5]; Tris Buffer pH 7.15
  quantity remaining in solution (solubility): 49 µM
[5]; Tris Buffer pH 7.36
  quantity remaining in solution (solubility): 22 µM
[5]; Tris Buffer pH 7.53
  quantity remaining in solution (solubility): 15 µM
